For 22 compounds, activity coefficient and mass density results are on record in the NIST ThermoML archive (doi:10.1016/j.jct.2012.08.022).

± gives the expanded uncertainty stated by the source.

Data set [1] is described as follows: activity coefficient (dimensionless); of the first substance listed, at infinite dilution; xn = mol fraction of the nth substance listed. As to conditions: Liquid, Chromatography, x1 = 0.
For data set [2] the following is noted: 101.33 kPa, Liquid, vibrating tube.

For `COCCOC` [1,2-dimethoxyethane] + CCCCn1cc[n+](C)c1.O=S(=O)([O-])O, the activity coefficient was found to be 4.76 ± 0.32 in data set [1] (313 K); 5.61 ± 0.38 in data set [1] (333 K); 7.03 ± 0.48 in data set [1] (353 K); 8.44 ± 0.58 in data set [1] (373 K); 10 ± 0.7 in data set [1] (393 K); 11.6 ± 0.8 in data set [1] (413 K).

Turning to `COCCOC` [1,2-dimethoxyethane] + Cn1cc[n+](C[Si](C)(C)C)c1.[Cl-], the activity coefficient in data set [1] (313 K) was 3.42 ± 0.23; in data set [1] (333 K), 3.49 ± 0.24; in data set [1] (353 K), 3.56 ± 0.24; in data set [1] (373 K), 3.89 ± 0.26; in data set [1] (393 K), 3.89 ± 0.26; in data set [1] (413 K), 3.77 ± 0.26.

For the compound `C1COCCO1` [1,4-dioxane] + CCCCn1cc[n+](C)c1.O=S(=O)([O-])O, the activity coefficient in data set [1] (313 K) is 2.72 ± 0.19; in data set [1] (333 K), 2.78 ± 0.19; in data set [1] (353 K) it was 2.99 ± 0.2; in data set [1] (373 K) it was 3.36 ± 0.23; in data set [1] (393 K), 3.8 ± 0.26; in data set [1] (413 K), 4.41 ± 0.3.

On to `C1COCCO1` [1,4-dioxane] + Cn1cc[n+](C[Si](C)(C)C)c1.[Cl-], for which the activity coefficient was 2.14 ± 0.15 in data set [1] (313 K); 1.95 ± 0.13 in data set [1] (333 K); 2.07 ± 0.14 in data set [1] (353 K); 2.13 ± 0.14 in data set [1] (373 K); 2.16 ± 0.15 in data set [1] (393 K); 2.28 ± 0.16 in data set [1] (413 K).

With `CCCCn1cc[n+](C)c1.O=S(=O)([O-])O` [1-butyl-3-methylimidazolium hydrogen sulfate], the mass density in data set [2] (303 K) was 1275.9 ± 0.4 kg/m3; in data set [2] (308 K), 1272.5 ± 0.4 kg/m3; in data set [2] (313 K) it was 1269 ± 0.4 kg/m3; in data set [2] (318 K) it was 1266.4 ± 0.4 kg/m3; in data set [2] (323 K), 1263.4 ± 0.4 kg/m3; in data set [2] (328 K) it was 1260.4 ± 0.4 kg/m3. Moreover, the mass density is 1257.4 ± 0.4 kg/m3 in data set [2] (333 K); 1254.5 ± 0.4 kg/m3 in data set [2] (338 K); 1251.5 ± 0.4 kg/m3 in data set [2] (343 K); 1248.6 ± 0.4 kg/m3 in data set [2] (348 K); 1245.7 ± 0.4 kg/m3 in data set [2] (353 K); 1242.8 ± 0.4 kg/m3 in data set [2] (358 K). In data set [2] (363 K), the mass density was determined as 1240 ± 0.4 kg/m3.

On to `Cn1cc[n+](C[Si](C)(C)C)c1.[Cl-]` [1-methyl-3-(trimethylsilylmethyl)imidazolium chloride], for which the mass density is listed as 1055.9 ± 1 kg/m3 in data set [2] (313 K); 1053 ± 0.9 kg/m3 in data set [2] (318 K); 1050.1 ± 0.9 kg/m3 in data set [2] (323 K); 1047.2 ± 0.9 kg/m3 in data set [2] (328 K); 1044.1 ± 0.9 kg/m3 in data set [2] (333 K); 1040.9 ± 0.9 kg/m3 in data set [2] (338 K). The mass density in data set [2] (343 K) is reported as 1038.1 ± 0.9 kg/m3; in data set [2] (348 K) it was 1035.3 ± 0.9 kg/m3; in data set [2] (353 K), 1032.4 ± 0.9 kg/m3; in data set [2] (358 K) it was 1029.6 ± 0.9 kg/m3; in data set [2] (363 K), 1026.8 ± 0.9 kg/m3.

Take `CC#N` [acetonitrile] + CCCCn1cc[n+](C)c1.O=S(=O)([O-])O: the activity coefficient in data set [1] (313 K) is 1.23 ± 0.08; in data set [1] (333 K) it was 1.31 ± 0.09; in data set [1] (353 K), 1.28 ± 0.08; in data set [1] (373 K), 1.26 ± 0.08; in data set [1] (393 K), 1.24 ± 0.08; in data set [1] (413 K), 1.19 ± 0.08.

Consider `CC#N` [acetonitrile] + Cn1cc[n+](C[Si](C)(C)C)c1.[Cl-], for which the activity coefficient in data set [1] (313 K) came out at 0.629 ± 0.043; in data set [1] (333 K), 0.659 ± 0.045; in data set [1] (353 K), 0.695 ± 0.047; in data set [1] (373 K) it was 0.712 ± 0.047; in data set [1] (393 K) it was 0.73 ± 0.048; in data set [1] (413 K), 0.756 ± 0.05.

For `c1ccccc1` [benzene] + CCCCn1cc[n+](C)c1.O=S(=O)([O-])O, the activity coefficient in data set [1] (313 K) is 5.11 ± 0.35; in data set [1] (333 K), 4.95 ± 0.34; in data set [1] (353 K) it was 5.36 ± 0.37; in data set [1] (373 K), 5.28 ± 0.36; in data set [1] (393 K) it was 5.49 ± 0.37; in data set [1] (413 K), 5.69 ± 0.39.

As for `c1ccccc1` [benzene] + Cn1cc[n+](C[Si](C)(C)C)c1.[Cl-], the activity coefficient amounted to 2.44 ± 0.17 in data set [1] (313 K); 2.3 ± 0.16 in data set [1] (333 K); 2.6 ± 0.18 in data set [1] (353 K); 2.94 ± 0.2 in data set [1] (373 K); 3.85 ± 0.26 in data set [1] (393 K); 4.36 ± 0.3 in data set [1] (413 K).

For the compound `CCO` [ethanol] + Cn1cc[n+](C[Si](C)(C)C)c1.[Cl-], the figures for the activity coefficient in data set [1] (333 K), in data set [1] (353 K) and in data set [1] (373 K) were 0.153 ± 0.029, 0.158 ± 0.029 and 0.163 ± 0.029, respectively.

For `CCOC(C)=O` [ethyl acetate] + CCCCn1cc[n+](C)c1.O=S(=O)([O-])O, the activity coefficient worked out at 9.02 ± 0.62 in data set [1] (313 K); 9.95 ± 0.68 in data set [1] (333 K); 11.7 ± 0.8 in data set [1] (353 K); 12.8 ± 0.9 in data set [1] (373 K); 13.8 ± 0.9 in data set [1] (393 K).

Turning to `CCOC(C)=O` [ethyl acetate] + Cn1cc[n+](C[Si](C)(C)C)c1.[Cl-], the activity coefficient in data set [1] (313 K) was 4.4 ± 0.3; in data set [1] (333 K), 4.27 ± 0.29; in data set [1] (353 K), 5.14 ± 0.35; in data set [1] (373 K), 6.96 ± 0.47; in data set [1] (393 K), 8.26 ± 0.56.

Consider `CO` [methanol] + Cn1cc[n+](C[Si](C)(C)C)c1.[Cl-], for which the activity coefficient in data set [1] (333 K) stood at 0.0373; in data set [1] (353 K), 0.0421; in data set [1] (373 K) it was 0.0472.

On to `C[N+](=O)[O-]` [nitromethane] + CCCCn1cc[n+](C)c1.O=S(=O)([O-])O, for which the activity coefficient in data set [1] (313 K) came to 0.826 ± 0.053; in data set [1] (333 K) it was 0.771 ± 0.05; in data set [1] (353 K), 0.83 ± 0.053; in data set [1] (373 K), 0.939 ± 0.059; in data set [1] (393 K), 1.08 ± 0.07; in data set [1] (413 K), 1.18 ± 0.08.

On to `C[N+](=O)[O-]` [nitromethane] + Cn1cc[n+](C[Si](C)(C)C)c1.[Cl-], for which the activity coefficient in data set [1] (313 K) turned out to be 0.449 ± 0.036; in data set [1] (333 K), 0.442 ± 0.036; in data set [1] (353 K), 0.477 ± 0.037; in data set [1] (373 K), 0.527 ± 0.039; in data set [1] (393 K) it was 0.559 ± 0.04; in data set [1] (413 K), 0.599 ± 0.042.

In the case of `CCCO` [propan-1-ol] + Cn1cc[n+](C[Si](C)(C)C)c1.[Cl-], the figures for the activity coefficient in data set [1] (333 K), in data set [1] (353 K) and in data set [1] (373 K) were 0.0747 ± 0.03, 0.0878 ± 0.03 and 0.102 ± 0.03, respectively.

As to `C1CCOC1` [tetrahydrofuran] + CCCCn1cc[n+](C)c1.O=S(=O)([O-])O, the activity coefficient in data set [1] (313 K) is 5.1 ± 0.35; in data set [1] (333 K), 5.61 ± 0.38; in data set [1] (353 K) it was 6.6 ± 0.45; in data set [1] (373 K), 7.34 ± 0.5; in data set [1] (393 K), 8.55 ± 0.58.

Regarding `C1CCOC1` [tetrahydrofuran] + Cn1cc[n+](C[Si](C)(C)C)c1.[Cl-], the activity coefficient in data set [1] (313 K) is 3.09 ± 0.21; in data set [1] (333 K), 2.93 ± 0.2; in data set [1] (353 K), 3.7 ± 0.25; in data set [1] (373 K), 4.31 ± 0.29; in data set [1] (393 K), 4.79 ± 0.33.

As to `Cc1ccccc1` [toluene] + CCCCn1cc[n+](C)c1.O=S(=O)([O-])O, the activity coefficient in data set [1] (313 K) worked out at 8.51 ± 0.58; in data set [1] (333 K), 9.22 ± 0.63; in data set [1] (353 K) it was 9.7 ± 0.66; in data set [1] (373 K), 11.1 ± 0.8; in data set [1] (393 K), 13 ± 0.9; in data set [1] (413 K), 13.9 ± 1.

For `Cc1ccccc1` [toluene] + Cn1cc[n+](C[Si](C)(C)C)c1.[Cl-], the activity coefficient in data set [1] (313 K) was 4.1 ± 0.28; in data set [1] (333 K), 3.8 ± 0.26; in data set [1] (353 K) it was 4.07 ± 0.28; in data set [1] (373 K), 4.67 ± 0.32; in data set [1] (393 K), 5.46 ± 0.37; in data set [1] (413 K) it was 6.21 ± 0.42.

As to `ClC(Cl)Cl` [trichloromethane] + Cn1cc[n+](C[Si](C)(C)C)c1.[Cl-], the activity coefficient in data set [1] (313 K) was 0.112 ± 0.03; in data set [1] (333 K), 0.153 ± 0.029; in data set [1] (353 K), 0.2 ± 0.029; in data set [1] (373 K), 0.253 ± 0.03; in data set [1] (393 K), 0.301 ± 0.031; in data set [1] (413 K), 0.338 ± 0.032.
